These results are taken from patent publication US10508104B2, “6-hydroxy-5-(phenyl/heteroarylsulfonyl)pyrimidin-4(1H)-one as APJ agonists” (Bristol-Myers Squibb Company, priority 2016, dated 2019).

In general, EC50 refers to the concentration giving half of the maximal effect.

Each structure is given as a SMILES string.

Chain of human APJ receptor (P35414 whole entry): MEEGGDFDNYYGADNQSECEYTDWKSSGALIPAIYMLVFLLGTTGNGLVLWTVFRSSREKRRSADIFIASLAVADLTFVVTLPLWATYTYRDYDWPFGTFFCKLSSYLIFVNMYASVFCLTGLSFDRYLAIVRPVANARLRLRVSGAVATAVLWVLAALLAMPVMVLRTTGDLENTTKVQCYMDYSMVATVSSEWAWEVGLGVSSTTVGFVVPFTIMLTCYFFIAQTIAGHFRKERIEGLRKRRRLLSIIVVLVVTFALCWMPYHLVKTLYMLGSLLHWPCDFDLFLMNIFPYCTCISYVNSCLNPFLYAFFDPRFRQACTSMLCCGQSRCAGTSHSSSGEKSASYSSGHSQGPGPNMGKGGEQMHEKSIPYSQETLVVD

The first assay concerns the target human APJ receptor (Homo sapiens (Human), UniProt P35414). The experiment in a line: Intracellular cAMP accumulation assay (APJ hcAMP, HTRF). Format: cell-based. The settings on record: HEK293 cells stably expressing human APJ receptor; inhibition of forskolin-mediated cAMP production; read-out: Human APJ cAMP EC50 Potency range. In outline:
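HEK293 cells stably expressing human APJ, 5,000 per well, incubated 30 min at rt with compound, […] and 2 μM forskolin. cAMP measured by HTRF against a cAMP standard curve as inhibition of forskolin-driven production. EC50 from variable-slope sigmoidal fit.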
For orientation: Cyclic AMP is a second messenger, typically raised through Gs and lowered through Gi signalling.
With `CC[C@@H](c1cccc(C#N)c1)n1c(CC2CC2)nc(=O)c(S(=O)(=O)c2ccc(-c3cccnc3C)cc2)c1O` [Example 443, 3-[(1S)-1-[2-(cyclopropylmethyl)-6-hydroxy-5-[4-(2-methylpyridin-3-yl)benzenesulfonyl]-4-oxo-1,4-dihydropyrimidin-1-yl]propyl]benzonitrile], the 50% effective concentration (EC50) is 0.01 to 10 nM. Same read-out and setting: the result for `CCCCc1nc(=O)c(S(=O)(=O)c2ccc(-c3ccncc3F)cc2)c(O)n1[C@@H](CC)c1cccc(C#N)c1` [Example 512, 3-[(1S)-1-{2-butyl-5-[4-(3-fluoropyridin-4-yI)benzenesulfonyl]-6-hydroxy-4-oxo-1,4-dihydropyrimidin-1-yl}propyl]benzonitrile] reads 0.01 to 10 nM; that for `CCCCc1nc(=O)c(S(=O)(=O)c2ccc(-c3ccc(F)nc3C)cc2)c(O)n1[C@H](c1cccc(C#N)c1)C1CC1` [Example 479, 3-[(S)-{2-butyl-5-[4-(6-fluoro-2-raethylpyridin-3-yl)benzenesulfonyl]-6-hydroxy-4-oxo-1,4-dihydropyrimidin-1-yl}(cyclopropyl)methyl] benzonitrile], 0.01 to 10 nM; that for `CCCCc1nc(=O)c(S(=O)(=O)c2ccc(-c3ccc(F)cc3)cc2)c(O)n1-c1c(OC)cccc1OC` [Example 7, 2-Butyl-1-(2,6-dimethoxyphenyl)-5-((4′-fluoro-[1,1′-biphenyl]-4-yl)sulfonyl)-6-hydroxypyrimidin-4(1H)-one], 0.01 to 10 nM. Still for that read-out and setting: the result for `COc1cccc(OC)c1-n1c(-c2ccc(F)cc2)nc(=O)c(S(=O)(=O)c2ccc(-c3cccnc3C)cc2)c1O` [Example 271, 1-(2,6-Dimethoxyphenyl)-2-(4-fluorophenyl)-6-hydroxy-5-((4-(2-methylpyridin-3-yl)phenyl)sulfonyl)pyrimidin-4(1H)-one] reads 0.01 to 10 nM; that for `COC[C@@H](c1cccc(C#N)c1)n1c(COC(C)C)nc(=O)c(S(=O)(=O)c2ccc(-c3ccnc(F)c3C)cc2)c1O` [Example 395, 3-[(1R)-1-{5-[4-(2-fluoro-3-methylpyridin-4-yl)benzenesulfonyl]-6-hydroxy-4-oxo-2-[(propan-2-yloxy)methyl]-1,4-dihydropyrimidin-1-yl}-2-methoxyethyl]benzonitrile], 0.01 to 10 nM.

Still in this assay, the particulars now being: human APJ, cAMP accumulation; read-out: Human APJ cAMP EC50 Potency range.
`CCOCc1nc(=O)c(S(=O)(=O)c2ccc(-c3ccncc3C)cc2)c(O)n1[C@@H](COC)c1ccccc1` [Example 315, 2-(ethoxymethyl)-6-hydroxy-1-[(1R)-2-methoxy-1-phenylethyl]-5-[4-(3-methylpyridin-4-yl)benzenesulfonyl]-1,4-dihydropyrimidin-4-one]: the EC50 lay within 0.01 to 10 nM. Regarding `COC[C@@H](c1ccccc1)n1c(COC(C)C)nc(=O)c(S(=O)(=O)c2ccc(-c3ccnc(F)c3C)c(F)c2)c1O` [Example 333, 5-[3-fluoro-4-(2-fluoro-3-methylpyridin-4-yl)benzenesulfonyl]-6-hydroxy-1-[(1R)-2-methoxy-1-phenylethyl]-2-[(propan-2-yloxy)methyl]-1,4-dihydropyrimidin-4-one], the 50% effective concentration (EC50) lay within 0.01 to 10 nM.

As to `CCCCc1nc(=O)c(S(=O)(=O)c2ccc(-c3cncc(F)c3)cc2)c(O)n1[C@@H](C)c1ccc(OC)cc1` [Example 241, 2-butyl-5-[4-(5-fluoropyridin-3-yl)benzenesulfonyl]-6-hydroxy-1-[(1S)-1-(4-methoxyphenyl)ethyl]-1,4-dihydropyrimidin-4-one], the EC50 lay in the range of 0.01 to 10 nM. Still for that read-out and setting: the result for `CCCCc1nc(=O)c(S(=O)(=O)c2ccc(-c3cccnc3C)cc2)c(O)n1[C@@H](C)c1ccc(OC)cc1` [Example 227] reads 0.01 to 10 nM. The same measure, in the same setting: with `COC[C@@H](c1ccccc1)n1c(COC(C)C)nc(=O)c(S(=O)(=O)c2ccc(F)c(F)c2)c1O` [Example 337, 5-(3,4-difluorobenzenesulfonyl)-6-hydroxy-1-[(1R)-2-methoxy-1-phenylethyl]-2-[(propan-2-yloxy)methyl]-1,4-dihydropyrimidin-4-one] the figure was 0.01 to 10 nM; with `Cc1ncccc1-c1ccc(S(=O)(=O)c2c(O)n([C@H]3CCc4ccccc43)c(COC(C)C)nc2=O)cc1` [Example 330, 1-[(1S)-2,3-dihydro-1H-inden-1-yl]-6-hydroxy-5-[4-(2-methylpyridin-3-yl)benzenesulfonyl]-2-[(propan-2-yloxy)methyl]-1,4-dihydropyrimidin-4-one], 0.01 to 10 nM. With `CCOCc1nc(=O)c(S(=O)(=O)c2ccc(-c3ccncc3C)cc2)c(O)n1[C@@H](CC)c1ccccc1` [Example 306, 2-(ethoxymethyl)-6-hydroxy-5-[4-(3-methylpyridin-4-yl)benzenesulfonyl]-1-[(1S)-1-phenylpropyl]-1,4-dihydropyrimidin-4-one], the EC50 was 0.01 to 10 nM. Still for that read-out and setting: with `CC[C@@H](c1ccccc1)n1c(COC(C)C)nc(=O)c(S(=O)(=O)c2ccc(-c3ccc(F)nc3C)cc2)c1O` [Example 311, 5-[4-(6-fluoro-2-methylpyridin-3-yl)benzenesulfonyl]-6-hydroxy-1-[(1S)-1-phenylpropyl]-2-[(propan-2-yloxy)methyl]-1,4-dihydropyrimidin-4-one] the figure was 0.01 to 10 nM; with `CCCCc1nc(=O)c(S(=O)(=O)c2ccc(-n3ccccc3=O)cc2)c(O)n1[C@@H](CC)c1ccccc1` [Example 287, 2-butyl-6-hydroxy-5-[4-(2-oxo-1,2-dihydropyridin-1-yl)benzenesulfonyl]-1-[(1S)-1-phenylpropyl]-1,4-dihydropyrimidin-4-one], 0.01 to 10 nM. Still for that read-out and setting: the result for `COC[C@@H](c1ccccc1)n1c(COC(C)C)nc(=O)c(S(=O)(=O)c2ccc(Br)c(F)c2)c1O` [Example 294, 5-(4-bromo-3-fluorobenzenesulfonyl)-6-hydroxy-1-[(1R)-2-methoxy-1-phenylethyl]-2-[(propan-2-yloxy)methyl]-1,4-dihydropyrimidin-4-one] reads 0.01 to 10 nM; that for `CCCCc1nc(=O)c(S(=O)(=O)c2ccc(-c3ccnc(F)c3C)cc2)c(O)n1[C@@H](CC)c1ccc(C#N)cc1` [Example 268, 4-[(1S)-1-{2-butyl-5-[4-(2-fluoro-3-methylpyridin-4-yl)benzenesulfonyl]-6-hydroxy-4-oxo-1,4-dihydropyrimidin-1-yl}propyl]benzonitrile], 0.01 to 10 nM; that for `CC[C@@H](c1ccccc1)n1c(C2CCCC2)nc(=O)c(S(=O)(=O)c2ccc(-c3ccncc3C)cc2)c1O` [Example 282, 2-cyclopentyl-6-hydroxy-5-[4-(3-methylpyridin-4-yl)benzenesulfonyl]-1-[(1S)-1-phenylpropyl] 1,4-dihydropyrimidin-4-one], 0.01 to 10 nM.

Still in this assay, the particulars now being: human APJ, intracellular cAMP accumulation; read-out: Human APJ cAMP EC50 Potency range.
On to `CCCCc1nc(=O)c(S(=O)(=O)c2ccc(C(=O)N3CC(C)(O)C3)cc2)c(O)n1-c1c(OC)cccc1OC` [Example 94, 2-butyl-1-(2,6-dimethoxyphenyl)-6-hydroxy-5-[4-(3-hydroxy-3-methylazetidine-1-carbonyl)benzenesulfo-nyl]-1,4-dihydropyrimidin-4-one], for which the concentration giving a half-maximal response (EC50) lay within 0.01 to 10 nM.

On to `CCCCc1nc(=O)c(S(=O)(=O)c2ccc(Br)cc2)c(O)n1[C@@H](C)c1cccc(C#N)c1` [Example 122, 3-[(1S)-1-[5-(4-bromobenzenesulfonyl)-2-butyl-6-hydroxy-4-oxo-1,4-dihydropyrimidin-1-yl]ethyl]benzonitrile], for which the EC50 was 10 to 100 nM.

In the case of `CCCCc1nc(=O)c(S(=O)(=O)c2ccc(-c3ccc(C)c(C)c3)cc2)c(O)n1-c1c(OC)cccc1OC` [Example 59, 2-butyl-1-(2,6-dimethoxyphenyl)-5-[4-(3,4-dimethylphenyl)benzene-sulfonyl]-6-hydroxy-1,4-dihydropyrimidin-4-one], the EC50 lay within 0.01 to 10 nM. Turning to `CCCCc1nc(=O)c(S(=O)(=O)c2ccc(C(=O)N3CC(F)(F)C3)cc2)c(O)n1-c1c(OC)cccc1OC` [Example 93, 2-butyl-5-[4-(3,3-difluoroazetidine-1-carbonyl)benzenesulfo-nyl]-1-(2,6-dimethoxyphenyl)-6-hydroxy-1,4-dihydropyrimidin-4-one], the EC50 fell in the range of 0.01 to 10 nM.

`CCCCc1nc(=O)c(S(=O)(=O)c2ccc(-c3c(C)nnn3C)cc2)c(O)n1-c1c(OC)cccc1OC` [Example 82, 2-butyl-1-(2,6-dimethoxyphenyl)-5-[4-(dimethyl-1H-1,2,3-triazol-5-yl)benzenesulfonyl]-6-hydroxy-1,4-dihydropyrimidin-4-one]: the EC50 lay in the range of 0.01 to 10 nM. On the same count and under the same terms, the result for `CCCCc1nc(=O)c(S(=O)(=O)c2ccc(-c3ccc(F)nc3C)cc2)c(O)n1C(c1ccccc1)C1CC1` (stereo not shown) [Example 202, 2-butyl-1-[cyclopropyl(phenyl)methyl]-5-[4-(6-fluoro-2-methylpyridin-3-yl)benzenesulfonyl]-6-hydroxy-1,4-dihydropyrimidin-4-one] reads 0.01 to 10 nM. On the same count and under the same terms, the result for `COc1cccc(OC)c1-n1c(CCC(C)C)nc(=O)c(S(=O)(=O)c2cccc(-c3ccccc3)c2)c1O` [Example 19, 1-(2,6-dimethoxyphenyl)-6-hydroxy-2-(3-methylbutyl)-5-(3-phenylbenzenesulfonyl)-1,4-dihydropyrimidin-4-one] reads 0.01 to 10 nM. The same measure, in the same setting: with `COc1cccc(OC)c1-n1c(C2CCCC2)nc(=O)c(S(=O)(=O)c2ccc(C)cc2)c1O` [Example 63, 2-cyclopentyl-1-(2,6-dimethoxyphenyl)-6-hydroxy-5-(4-methylbenzenesulfonyl)-1,4-dihydropyrimidin-4-one] the figure was 0.01 to 10 nM; with `CCCCc1nc(=O)c(S(=O)(=O)c2ccc(-c3ccc(OC)nc3C)cc2)c(O)n1[C@@H](COC)c1ccccc1` [Example 147, 2-butyl-6-hydroxy-1-[(1R)-2-methoxy-1-phenylethyl]-5-[4-(6-methoxy-2-methylpyridin-3-yl)benzenesulfonyl]-1,4-dihydropyrimidin-4-one], 0.01 to 10 nM; with `CCCCc1nc(=O)c(S(=O)(=O)c2ccc(-c3ccncc3C)cc2)c(O)n1[C@H]1CCc2ccccc21` [Example 155, 2-butyl-1-[(1S)-2,3-dihydro-1H-inden-1-yl]-6-hydroxy-5-[4-(3-methylpyridin-4-yl)benzenesulfonyl]-1,4-dihydropyrimidin-4-one], 0.01 to 10 nM.
